{
  "source": "patent US20050186172A1",
  "about": "“Cosmetic composition capable of fighting against skin aging” (Laboratoires Clarins, a corporation of France, priority 2002, published 2005)",
  "test_system": "glycation cross-linking between bovine albumin and glucose",
  "experiment": "Anti-glycation activity: fluorescence of bovine albumin-glucose adduct (AGE) after incubation",
  "type": "biochemical",
  "settings": "10 mM, 8 days 37° C.",
  "protocol": "The effect of the extract of Diospyros kaki was studied in vitro on a model based on the measurement of the formation of the derivatives of the glycation reaction between lysine and glucose 6-phosphate. Certain of these derivatives (AGE) are fluorescent. The reaction was measured after […] of incubation.\nA reference molecule was tested in parallel: aminoguanidine.\nThe test system is the reaction mixture containing bovine albumin ([…]) and glucose (500 mM) in a phosphate buffer (0.2 M, pH=7.4.).\nThe products were mixed with the test system in sterile tubes; the tubes were covered with aluminum foil (the reaction must take place shielded from light).\nFor the experimental conditions in which certain reagents or products are not present, the volume of the QSP tube should be completed with MilliQ water.\nAfter having sealed the openings of the tubes with parafilm (the reaction must take place without oxygen), the different reaction media were placed in a dry oven at 37° C. for 8 days.\nAfter 8 days of incubation, 100 μl was collected from each tube and transferred to a 96-well black plate.\nThe fluorescence was then read using FLUOstar (BMG) (excitation at 355 nm, emission at 460 nm). The results are expressed in arbitrary fluorescence units.\nThe relative fluorescence for the “product+bovine albumin” (=interference) is to be subtracted from the “product+bovine albumin+glucose” data.\nAfter 8 days of incubation of bovine albumin with an overcharge of glucose, the formation of glycation cross-linking was seen. It was evaluated by taking advantage of the fluorescence properties of the bovine albumin-glucose adduct.",
  "data": [
    {"smiles": "N=C(N)NN", "note": "[Aminoguanidine, aminoguanidine]", "values": [
      {"measurement": "% inhibition of the glycation", "setting": "BSA + glucose", "value": 100, "unit": "%"},
      {"measurement": "Intensity of fluorescence", "setting": "BSA + glucose, ex 355 nm / em 460 nm", "value": "13,011.5 arbitrary units"},
      {"measurement": "Intensity of real fluorescence", "setting": "interference subtracted", "value": 0, "unit": "arbitrary units"}
    ]}
  ]
}
